Literature values, collected in patent publication US20190124865A1, “APPARATUS AND METHOD FOR INACTIVATING PLANT PATHOGENS WHILE STIMULATING PLANT GROWTH VIA SELECTIVE APPLICATION OF OXYGEN/OZONE GAS MIXTURES, AND CARBON DIOXIDE, IN A MULTI COMPARTMENT SYSTEM” (priority 2017, published 2019).

Legend:
Aeromonas hydrophilia = details: ozone 5% per volume admixed with oxygen
staphylococcus aureus = details: ozone 5% per volume admixed with oxygen
[1] = gaseous milieu, room temperature
coliform bacteria = details: ozone 5% per volume admixed with oxygen
fungal species = details: ozone 5% by volume, given time
plants = details: 30% increase in ambient carbon dioxide, in the order of 100 ppm to 150 ppm

| Compound | inactivation of Aeromonas hydrophilia (Aeromonas hydrophilia) | inactivation of staphylococcus aureus (staphylococcus aureus) | rate of reversion to pure oxygen [1] | inactivation of coliform bacteria (coliform bacteria) | effect on fungal species (fungal species) | increase in plant growth (plants) [%] |
| --- | --- | --- | --- | --- | --- | --- |
| O=[O+][O-] [Ozone, ozone] | rapidly inactivates | rapidly inactivates | about 50 % per hour | rapidly inactivates | inexorable distress to any and all fungal species, leading to their demise |  |
| O=C=O [carbon dioxide] |  |  |  |  |  | 30 |
